Laboratory results reported in patent US12054498B2, “Heteroaromatic macrocyclic ether chemotherapeutic agents” (Nuvalent, Inc., priority 2020, dated 2024).

How the values were obtained:
[1] = target: T1, Ba/F3 cells TPM3-TRKA (Homo sapiens, UniProt P04629); assay: Ba/F3 cell proliferation assay, TPM3-TRKA; type: cell-based; settings: 72 hours, CellTiter-Glo, read-out: TPM3-NTRK1-wt IC50
T1 construct: host or cells: Ba/F3 (RIKEN), retroviral pMSCV-puro; the other entry of the earlier key: TPM3 (P06753, Tropomyosin alpha-3 chain)
T1 sequence (P04629 510-796 limits assumed): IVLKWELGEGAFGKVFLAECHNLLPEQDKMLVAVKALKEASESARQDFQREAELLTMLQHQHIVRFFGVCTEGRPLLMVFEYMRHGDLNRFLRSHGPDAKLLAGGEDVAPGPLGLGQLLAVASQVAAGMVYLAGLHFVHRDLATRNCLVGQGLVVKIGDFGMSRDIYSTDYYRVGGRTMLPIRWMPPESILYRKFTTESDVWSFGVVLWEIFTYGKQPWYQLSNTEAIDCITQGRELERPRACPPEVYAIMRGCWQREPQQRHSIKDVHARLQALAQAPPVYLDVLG
In short: (§1)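 IC50 values come from four-parameter logistic regression of CellTiter-Glo luminescence after 72 h exposure to 3-fold serial dilutions. Cells are Ba/F3 transformed by retroviral fusion-kinase constructs, grown without IL-3 under puromycin, plated at 1,000 per well a day before dosing.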

[2] = target: T2, ALK L1196M/G1202R (Homo sapiens, UniProt Q9UM73, G1202R/L1196M); assay: Biochemical kinase assay, ALK L1196M/G1202R kinase domain; settings: apparent inhibitory constant, Morrison equation; ATP 2 mM in substrate solution; read-out: ALK-L1196M-G1202R Ki^app
T2 construct: purchased SignalChem A19-12NG
T2 sequence (Q9UM73 1116-1392 L1196M/G1202R limits assumed): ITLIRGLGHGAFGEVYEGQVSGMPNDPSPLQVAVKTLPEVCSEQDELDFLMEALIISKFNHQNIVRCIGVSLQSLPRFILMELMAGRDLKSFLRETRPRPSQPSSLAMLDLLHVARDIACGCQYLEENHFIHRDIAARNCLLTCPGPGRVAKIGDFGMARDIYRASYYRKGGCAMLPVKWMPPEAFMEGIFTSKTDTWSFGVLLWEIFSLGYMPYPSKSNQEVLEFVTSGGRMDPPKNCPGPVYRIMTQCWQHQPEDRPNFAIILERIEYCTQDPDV
In short: (§2)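 Continuous fluorescence read (λ=485 nm, every 2 min, 120 min, 30° C). Substrate solution held 2 mM ATP and 26 μM AQT0101 (ROS1/ALK) or AQT0104 (TRKA). Kinase solution: ROS1-G2032R 0.5 nM, ROS1-wt 0.6 nM, TRKA 1 nM, ALK double mutant 3 nM. Initial linear rates fed a Morrison-equation fit giving Ki^app.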

[3] = target: T3, ALK-wt (Homo sapiens, UniProt Q9UM73); assay: Biochemical kinase assay, ALK-wt kinase domain; settings: apparent inhibitory constant, Morrison equation; ATP 2 mM in substrate solution; read-out: ALK-wt Ki^app
T3 construct: purchased Carna 08-518
T3 sequence (Q9UM73 1116-1392 limits assumed): as the sequence (Q9UM73 1116-1392 L1196M/G1202R limits assumed) above, with M81L, R87G counted along it
In short: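 Compound in DMSO added first, then substrate solution (ATP 2 mM; AQT0101 or AQT0104, 26 μM; pH 7.5 HEPES, 10 mM MgCl2), then kinase solution with enzyme at 0.5–3 nM depending on construct. Kinetic read every 2 min for 120 min at 30° C; Ki^app by Morrison regression.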

[4] = target: T4, Ba/F3 cells EML4-ALK wt (variant 1) (Homo sapiens, UniProt Q9UM73); assay: Ba/F3 cell proliferation assay, EML4-ALK wt (variant 1); type: cell-based; settings: 72 hours, CellTiter-Glo
T4 construct: echinoderm microtubule-associated protein-like 4 (EML4) gene and the ALK tyrosine kinase domain; host or cells: Ba/F3 (RIKEN), retroviral pMSCV-puro; the other entry of the earlier key: EML4 (Q9HC35, Echinoderm microtubule-associated protein-like 4)
T4 sequence (Q9UM73 with tags, fused parts or gaps): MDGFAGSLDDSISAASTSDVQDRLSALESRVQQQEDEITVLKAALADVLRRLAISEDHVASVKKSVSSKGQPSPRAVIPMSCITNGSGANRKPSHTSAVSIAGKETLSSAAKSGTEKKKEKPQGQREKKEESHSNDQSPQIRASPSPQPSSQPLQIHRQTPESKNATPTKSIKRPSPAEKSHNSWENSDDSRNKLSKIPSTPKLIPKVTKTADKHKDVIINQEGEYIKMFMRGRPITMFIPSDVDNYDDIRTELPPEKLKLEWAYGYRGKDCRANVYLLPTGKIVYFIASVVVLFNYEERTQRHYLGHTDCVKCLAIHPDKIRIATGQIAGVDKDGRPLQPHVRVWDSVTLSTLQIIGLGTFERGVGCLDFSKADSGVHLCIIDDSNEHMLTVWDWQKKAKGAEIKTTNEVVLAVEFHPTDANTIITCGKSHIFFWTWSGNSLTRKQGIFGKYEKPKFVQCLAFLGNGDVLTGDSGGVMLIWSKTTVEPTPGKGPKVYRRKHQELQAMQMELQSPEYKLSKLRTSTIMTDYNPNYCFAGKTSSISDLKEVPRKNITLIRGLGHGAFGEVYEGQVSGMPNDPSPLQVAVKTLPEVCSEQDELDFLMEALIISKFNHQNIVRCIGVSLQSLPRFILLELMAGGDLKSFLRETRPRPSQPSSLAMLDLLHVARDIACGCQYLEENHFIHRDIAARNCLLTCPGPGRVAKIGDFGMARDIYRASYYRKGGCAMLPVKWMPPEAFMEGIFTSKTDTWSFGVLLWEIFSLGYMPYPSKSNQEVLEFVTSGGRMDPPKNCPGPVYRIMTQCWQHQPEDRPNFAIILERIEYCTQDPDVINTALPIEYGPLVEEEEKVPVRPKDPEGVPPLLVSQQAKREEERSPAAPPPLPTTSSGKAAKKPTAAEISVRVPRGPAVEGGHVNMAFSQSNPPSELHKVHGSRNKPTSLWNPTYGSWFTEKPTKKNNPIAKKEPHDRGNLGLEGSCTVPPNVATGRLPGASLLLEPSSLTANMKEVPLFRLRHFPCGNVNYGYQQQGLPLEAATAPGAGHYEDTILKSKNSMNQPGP
In short: as §1

[5] = target: T5, TRKA-wt (Homo sapiens, UniProt P04629); assay: Biochemical kinase assay, TRKA-wt kinase domain; settings: apparent inhibitory constant, Morrison equation; ATP 2 mM in substrate solution; read-out: TRKA-wt Ki^app
T5 construct: or TRKA-wt (1 nM, BPS Bio, 40280) kinase domains in buffer; purchased BPS Bio 40280
T5 sequence (P04629 510-781 limits assumed): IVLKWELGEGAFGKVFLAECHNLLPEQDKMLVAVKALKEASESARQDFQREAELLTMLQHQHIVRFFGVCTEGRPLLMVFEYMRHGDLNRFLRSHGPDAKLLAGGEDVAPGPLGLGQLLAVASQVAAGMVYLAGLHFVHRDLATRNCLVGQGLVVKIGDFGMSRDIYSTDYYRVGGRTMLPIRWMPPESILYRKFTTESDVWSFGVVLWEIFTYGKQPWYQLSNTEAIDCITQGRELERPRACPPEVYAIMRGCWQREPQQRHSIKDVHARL
In short: as §2

[6] = target: T6, ROS1-wt (Homo sapiens, UniProt P08922); assay: Biochemical kinase assay, ROS1-wt kinase domain; settings: apparent inhibitory constant, Morrison equation; ATP 2 mM in substrate solution; read-out: ROS1-wt Ki^app
T6 construct: purchased Carna 08-163
T6 sequence (P08922 1945-2222 limits assumed): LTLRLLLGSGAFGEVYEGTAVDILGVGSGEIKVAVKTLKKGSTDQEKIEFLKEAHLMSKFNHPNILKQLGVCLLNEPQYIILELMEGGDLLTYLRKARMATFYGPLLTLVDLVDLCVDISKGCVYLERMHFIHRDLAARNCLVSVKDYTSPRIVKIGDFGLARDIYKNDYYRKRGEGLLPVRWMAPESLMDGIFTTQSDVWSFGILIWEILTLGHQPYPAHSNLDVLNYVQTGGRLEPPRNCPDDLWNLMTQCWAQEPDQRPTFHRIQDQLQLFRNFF
In short: (§3)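 Kinetic read: 485 nm, 2-min intervals, 120 min, 30 °C. Substrate mix — ATP 2 mM, AQT0101 26 μM, HEPES 50 mM pH 7.5, MgCl2 10 mM. Output: Ki^app, Morrison equation.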

[7] = system: TPM3-NTRK1-wt IC50 / primary target IC50 (e.g. CD74-ROS1-wt); assay: TRKA selectivity in Ba/F3 cells (TRKA potency divided by primary target potency); type: cell-based; settings: for TPM3-NTRK1-wt/CD74-ROS1-G2032R selectivity ratio: TRKA potency / CD74-ROS1-G2032R potency; for TPM3-NTRK1-wt/CD74-ROS1-wt selectivity ratio: TRKA potency / CD74-ROS1-wt potency; for TPM3-NTRK1-wt/EML4-ALK-L1196M-G1202R selectivity ratio: TRKA potency / EML4-ALK-L1196M-G1202R potency; for TPM3-NTRK1-wt/EML4-ALK-wt selectivity ratio: TRKA potency / EML4-ALK-wt potency
Description: TRKA selectivity was calculated by dividing a compound's TRKA potency by its primary target potency (e.g. TPM3-NTRK1-wt IC50/CD74-ROS1-wt IC50). Compound selectivity can be interpreted by binning ratio values: bin A for very high selectivity, ratio >30-fold; bin B for high selectivity, ratio >10-fold; bin C for moderate selectivity, ratio ≥1; and bin D for low selectivity, ratio <1. […] (nd=not determined).

[8] = target: T7, Ba/F3 cells EML4-ALK L1196M/G1202R (variant 1) (Homo sapiens, UniProt Q9UM73, G1202R/L1196M); assay: Ba/F3 cell proliferation assay, EML4-ALK L1196M/G1202R (variant 1); type: cell-based; settings: 72 hours, CellTiter-Glo
T7 construct: echinoderm microtubule-associated protein-like 4 (EML4) gene and the ALK tyrosine kinase domain; host or cells: Ba/F3 (RIKEN), retroviral pMSCV-puro; the other entry of the earlier key: EML4 (Q9HC35, Echinoderm microtubule-associated protein-like 4)
T7 sequence (Q9UM73 with tags, fused parts or gaps L1196M/G1202R): as the sequence (Q9UM73 with tags, fused parts or gaps) above, with L635M, G641R counted along it
In short: as §1

[9] = target: T8, Ba/F3 cells CD74-ROS1 G2032R (Homo sapiens, UniProt P08922, G2032R); assay: Ba/F3 cell proliferation assay, CD74-ROS1 G2032R; type: cell-based; settings: 72 hours, CellTiter-Glo
T8 construct: fusion of the C-terminus of ROS1 with the N-terminus of various partner proteins; host or cells: Ba/F3 (RIKEN), retroviral pMSCV-puro; the other entry of the earlier key: CD74 (P04233, HLA class II histocompatibility antigen gamma chain)
T8 sequence (P08922 1883-2347 G2032R limits assumed): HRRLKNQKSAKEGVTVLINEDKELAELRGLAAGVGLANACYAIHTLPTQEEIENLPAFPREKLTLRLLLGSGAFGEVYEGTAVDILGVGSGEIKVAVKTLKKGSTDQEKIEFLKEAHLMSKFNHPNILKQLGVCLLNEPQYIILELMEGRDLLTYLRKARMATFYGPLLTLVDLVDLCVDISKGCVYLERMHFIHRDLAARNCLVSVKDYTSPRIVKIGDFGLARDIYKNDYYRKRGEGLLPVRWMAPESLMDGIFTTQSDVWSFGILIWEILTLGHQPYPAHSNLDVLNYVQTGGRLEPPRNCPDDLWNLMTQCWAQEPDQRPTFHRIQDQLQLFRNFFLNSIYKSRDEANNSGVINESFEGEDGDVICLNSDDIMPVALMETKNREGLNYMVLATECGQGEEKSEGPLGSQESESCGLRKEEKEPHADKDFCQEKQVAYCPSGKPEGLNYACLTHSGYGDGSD
In short: (§4)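 Cells were seeded 1 day, then exposed to a 3-fold compound dilution series for 72 hours. Viability was read by CellTiter-Glo luminescence; IC50 came from four-parameter logistic fitting of percent inhibition.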

[10] = target: T9, ROS1-G2032R (Homo sapiens, UniProt P08922, G2032R); assay: Biochemical kinase assay, ROS1-G2032R kinase domain; settings: apparent inhibitory constant, Morrison equation; ATP 2 mM in substrate solution; read-out: ROS1-G2032R Ki^app
T9 construct: purchased SignalChem R14-12BG
T9 sequence (P08922 1945-2222 G2032R limits assumed): as the sequence (P08922 1945-2222 limits assumed) above, with G88R counted along it
In short: as §3

[11] = target: T10, Ba/F3 cells CD74-ROS1 wild-type (wt) (Homo sapiens, UniProt P08922); assay: Ba/F3 cell proliferation assay, CD74-ROS1 wild-type; type: cell-based; settings: 72 hours, CellTiter-Glo
T10 construct: fusion of the C-terminus of ROS1 with the N-terminus of various partner proteins; host or cells: Ba/F3 (RIKEN), retroviral pMSCV-puro; the other entry of the earlier key: CD74 (P04233, HLA class II histocompatibility antigen gamma chain)
T10 sequence (P08922 1883-2347 limits assumed): as the sequence (P08922 1883-2347 G2032R limits assumed) above, with R150G counted along it
In short: as §4

Row | Compound | IC50 [1] [nM] | Ki [2] [nM] | Ki [3] [nM] | IC50 [4] [nM] | Ki [5] [nM] | Ki [6] [nM] | TPM3-NTRK1-wt/CD74-ROS1-G2032R selectivity ratio [7] | TPM3-NTRK1-wt/CD74-ROS1-wt selectivity ratio [7] | TPM3-NTRK1-wt/EML4-ALK-L1196M-G1202R selectivity ratio [7] | TPM3-NTRK1-wt/EML4-ALK-wt selectivity ratio [7] | IC50 [8] [nM] | IC50 [9] [nM] | Ki [10] [nM] | IC50 [11] [nM]
1 | C[C@H]1Oc2cc(cnc2N)-c2c(C#N)ncn2Cc2nccnc2-c2ccc(F)cc21 [Example 46, (20R)-23-amino-17-fluoro-20-methyl-21-oxa-4,6,9,12,24-pentaazapentacyclo[20.3.1.0^2,^6.0^8,^13.0^14,^19]hexacosa-1(25),2,4,8(13),9,11,14,16,18,22(26),23-undecaene-3-carbonitrile] | > 500 | 50 to 500 | < 50 | 0.1 to 50 | > 500 | < 50 | A (bin A for very high selectivity, ratio >30-fold) | A (bin A for very high selectivity, ratio >30-fold) | A (bin A for very high selectivity, ratio >30-fold) | A (bin A for very high selectivity, ratio >30-fold) | 50 to 500 | 0.1 to 50 | 50 to 500 | 0.1 to 50
2 | C[C@H]1Oc2cc(cnc2N)-c2c(c(Cl)nn2CC2CC2)Cc2nn(C)cc2-c2ccc(F)cc21 [Example 90, (19R)-5-chloro-3-(cyclopropylmethyl)-16-fluoro-10,19-dimethyl-20-oxa-3,4,9,10,23-pentaazapentacyclo[19.3.1.0^2,^6.0^8,^12.0^13,^18]pentacosa-1(24),2(6),4,8,11,13,15,17,21(25),22-decaen-22-amine] | > 500 | < 50 | < 50 | 0.1 to 50 | > 500 | < 50 | A (bin A for very high selectivity, ratio >30-fold) | A (bin A for very high selectivity, ratio >30-fold) | A (bin A for very high selectivity, ratio >30-fold) | A (bin A for very high selectivity, ratio >30-fold) | 50 to 500 | 0.1 to 50 | < 50 | 0.1 to 50
3 | CCn1nc(Cl)c2c1-c1cnc(N)c(c1)O[C@H](C)c1cc(F)ccc1-c1nn(C)nc1C2 [Example 28, (19R)-5-chloro-3ethyl-16-fluoro-10,19-dimethyl-20-oxa-3,4,9,10,11,23-hexaazapentacyclo[19.3.1.0^2,^6.0^8,^12.0^13,^18]pentacosa-1(24),2(6),4,8,11,13,15,17,21(25),22-decaen-22-amine] | 50 to 500 | < 50 | < 50 | 0.1 to 50 | > 500 | < 50 | A (bin A for very high selectivity, ratio >30-fold) | A (bin A for very high selectivity, ratio >30-fold) | C (bin C for moderate selectivity, ratio ≥1) | B (bin B for high selectivity, ratio >10-fold) | 50 to 500 | 0.1 to 50 | < 50 | 0.1 to 50
4 | Cc1nn(CC2CC2)c2c1Cn1ncnc1-c1ccc(F)cc1[C@@H](C)Oc1cc-2cnc1N [Example 64, (19R)-3-(cyclopropylmethyl)-16-fluoro-5,19-dimethyl-20-oxa-3,4,8,9,11,23-hexaazapentacyclo[19.3.1.0^2,^6.0^8,^12.0^13,^18]pentacosa-1(24),2(6),4,9,11,13,15,17,21(25),22-decaen-22-amine] | > 500 | < 50 | < 50 | 0.1 to 50 | > 500 | < 50 | A (bin A for very high selectivity, ratio >30-fold) | A (bin A for very high selectivity, ratio >30-fold) | A (bin A for very high selectivity, ratio >30-fold) | A (bin A for very high selectivity, ratio >30-fold) | 50 to 500 | 0.1 to 50 | < 50 | 0.1 to 50
